Columns and labels:
[1] = target: HCMV protease (Assemblin) (Human cytomegalovirus, UniProt P16753); assay: Enzymatic assay for HCMV protease (Assemblin) inhibitors, chromogenic pNA substrate; format: biochemical
Experimental: Assemblin protease activity was determined using a chromogenic para-nitroanilide (pNA) substrate based on the hCMV maturation cleavage site, succinyl-AGVVNA-paranitroanilide. […] Potential protease inhibitors were dissolved in DMSO and 10 µL were added to the wells of a 96-well plate (Dynatech, Immulon 1). Enzyme was diluted to 4.8 µg/mL in assay buffer (10 mM sodium phosphate, pH 7.4, 150 mM sodium acetate, 0.1% CHAPS, 20% glycerol) and 100 µL were added to each well. Following a 30 minute incubation at room temperature, 50 µL substrate (1 part 20 mM succinyl-AGVVNA-paranitroanilide (SEQID:1) in DMSO plus 9 parts assay buffer) were added, and periodic readings taken in a microplate reader at 405 nm relative to 650 nm. Activities were expressed as milliabsorbance unit (mAU) change per minute. Inhibitor potency was determined by comparison with incubations lacking inhibitor, which under these conditions gave an increase of 0.5-1 mAU/min. No increase was seen when enzyme was omitted. Results [IC50 (µM)] are included in Table 1.
The construction also encoded six additional histidine residues at the amino terminus of the protease. These additional histidine residues provided an affinity ligand by which it was purified using nickel-nitriloacetic acid-agarose (Qiagen).
The purified protease was stored as a 1-3 mg/ml stock solution in 20 mM HEPES buffer, pH 7.4; containing 20% (v/v) glycerol. This stock was diluted with assay buffer to 4.8 µg/ml. A 100 µL aliquot of this solution was used in the enzyme reaction.
A specific substrate was synthesized based on the cleavage specificity of HCMV protease at the "maturation site" of the assembly protein (F. Liu and B. Roizman, J. Virol., 65, 5149 (1991), and A. Welch, et al, J. Virol., 65, 4091 (1991)). The assembly protein maturation site has the sequence ...AGVVNA*SCRLATA...; the substrate used was succinyl-[…] (SEQID:1) which was prepared by standard peptide synthetic methods such as that described in Bodansky and Bodansky, "The Practice of Peptide Synthesis" (1984), and was stored as a stock solution at 20 mM in dimethyl sulfoxide. This was diluted 10-fold with assay buffer to give a concentration of 2 mM just before use. An aliquot of 50 µL was used in the reaction
An assay Buffer (10 mM sodium phosphate buffer, pH 7.4; 150 mM sodium acetate; 0.1% CHAPS; and 20% (v/v) glycerol) was used to dilute stock solutions of enzyme and substrate.

[2] = in vitro; format: cell-based; details: human
Text: (§1) These complimentary assays tested the ability of a compound to inhibit the production of new virus and the toxicity of the compound to the host cells. It was important that both assays be performed simultaneously in order to compare the results directly since, toxicity may indirectly reduce viral yield.
(§2) Viral yield was estimated by measuring the amount of a viral antigen produced 4 days post infection with a monoclonal antibody to an abundant "immediate early" viral protein. An enzyme-linked (horseradish peroxidase) secondary antibody specific to the primary (mouse) antibody was used to measure the amount of viral antigen. Test compounds were diluted to 2-times the desired final concentration in DMEM + 5% FBS. One hundred microliters of this solution was placed in each well of a 96-well plate. This was performed once for the antiviral 96-well plate and again for a cytotoxicity plate. Two controls were also included for both plates; a no drug control and a no virus control. Ganciclovir was routinely tested in antiviral and cytotoxicity plates as a reference standard because it has known antiviral activity for HCMV. All cells were prepared by harvesting human foreskin fibroblasts, with trypsin and re-suspending at a concentration of 5 X 10^5 cells per ml in DMEM. Infected cells were prepared by infecting these with HCMV (strain AD169) at a multiplicity of infection = 0.2. One hundred microliters of uninfected cells (5 x 10^4 cells) were added to the appropriate wells of the cytotoxicity plate. In a similar manner 100 µl of infected cells (5 x 10^4 cells) were added to the appropriate wells of the antiviral plate. Additionally, uninfected cells not treated with test compound were included as controls on the antiviral plate. Plates were incubated for 96 hours at 37°C in 5% CO2 atmosphere and processed to measure the amount of viral antigen and toxicity.
(§3) In this assay, HCMV replication was monitored by the production of E. coli beta-galactosidase by the engineered virus RC256 [Spaete and Mocarski, Proc.Nat.Acad.Sci., 84, 7213 (1987)]. One antiviral assay and one cytotoxicity assay were done for each compound. Dilutions of test compounds and infection of cells in a 96-well plate was essentially as described above for the HCMV ELISA except for the following. Human foreskin fibroblasts at 3.5 x 10^5 cells per milliliter were infected in solution with RC256 at 0.05 pfu per cell. Compounds and cells were incubated 3 days and processed at […]. For the beta galactosidase detection, the supernatant was aspirated from the antiviral assay plates and 50 µl Reporter Lysis Buffer (Promega, diluted to 1X with water) was added per well. The plates were incubated at room temperature at least 30 minutes and plates were frozen at -20 °C at this point for later processing. 50 µl of 2X assay buffer [120 mM Na2HPO4, 80 mM NaH2PO4, 2 mM MgCl2, 100 mM 2-mercaptoethanol, 4.4 mM ONPG (Sigma)] was added per well and incubated at room temperature 30 to 45 minutes. The reaction was stopped with 100 µl 1M CAPS buffer, pH = 11.0, per well and the optical density was read at 410 nanometers. Ganciclovir was used as a positive control and the EC50 was determined as described above for the HCMV ELISA. Results (EC50/TD50) are included in Table 1.

[3] = target: T1, Human leukocyte elastase (HLE) (Homo sapiens, UniProt P08246); assay: Human leukocyte elastase assay; format: biochemical; details: read-out: HLE % @ Conc.
T1 construct: gift of R. Senior, Washington University
T1 sequence (P08246 30-267): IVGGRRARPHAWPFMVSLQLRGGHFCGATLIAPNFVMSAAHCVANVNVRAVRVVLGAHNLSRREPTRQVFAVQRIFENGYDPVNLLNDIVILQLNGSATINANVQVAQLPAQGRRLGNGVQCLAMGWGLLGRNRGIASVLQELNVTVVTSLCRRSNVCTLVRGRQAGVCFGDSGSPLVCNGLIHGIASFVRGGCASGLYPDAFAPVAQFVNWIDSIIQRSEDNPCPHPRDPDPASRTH
Experimental: Human leukocyte elastase (HLE) (gift of R. Senior, Washington University) was dissolved in saline at 1 mg/ml and further diluted 1/20 in assay buffer (0.2 M Tris, pH 8.0) before use. 10 µl of test compound in DMSO (or DMSO alone), 100 µl of assay buffer and 50 µl of enzyme were added to 96 well plates, mixed and pre-incubated for 30 minutes at ambient temperature. Reaction was initiated by addition of 40 µl of 2.5 mM methoxysuccinyl-Ala-Ala-Pro-Val-p-nitroanilide (Sigma; 25 mM in DMSO diluted 1/10 in assay buffer before use). The increase in absorbance at 405 nm was monitored for 10 minutes with a Biotek EL340 plate reader.

[4] = tested on: RC256; assay: Recombinant human cytomegalovirus antiviral assay (RC256, beta-galactosidase); format: cell-based, HCMV; details: Human betaherpesvirus 5, read-out: Antiviral Activity EC50
Text: as §1, §3

[5] = target: T2, Bovine pancreas α-chymotrypsin (Bos taurus, UniProt P00766, DEL14-15/DEL147-148); assay: Chymotrypsin assay; format: biochemical; details: read-out: Chymotrypsin % @ Conc.
T2 construct: Bovine pancreas α-chymotrypsin (type II, Sigma); purchased Sigma type II; host or cells: bovine pancreas
Experimental: The chymotrypsin assay was modified from the method of Delmar et al [Anal. Biochem., 99, 316-320 (1979)]. Bovine pancreas α-chymotrypsin (type II, Sigma) was dissolved in 0.001 N HCl at 1 mg/ml and further diluted 1/600 in assay buffer (0.1 M Tris, pH 7.8, containing 0.1 M CaCl2) before use. 20 µl of test compound in DMSO (or DMSO alone), 100 µl of assay buffer and 30 µl of enzyme were added to 96 well plates, mixed and pre-incubated for 30 minutes at ambient temperature. Reaction was initiated by addition of 50 µl of 0.2 mM N-succinyl-Ala-Ala-Pro-Phe-p-nitroanilide (Sigma; 2 mM in DMSO diluted 1/10 in assay buffer before use). The increase in absorbance at 405 nm was monitored for 10 minutes with a Biotek EL340 plate reader.

[6] = in vitro; format: cell-based; details: human, foreskin fibroblasts
Text: as §1
as §2, with “One hundred microliters of uninfected cells (5 x 10^4 cells) were added to the appropriate wells of the cytotoxicity plate. In a similar manner 100 µl of infected cells (5 x 10^4 cells) were added to the appropriate wells of the antiviral plate. Additionally, uninfected cells not treated with test compound were included as controls on the antiviral plate. Plates were incubated for 96 hours at 37°C in 5% CO2 atmosphere and processed to measure the amount of viral antigen and toxicity.” left out

[7] = tested on: HCMV (strain AD169); assay: Antiviral assay, ELISA for HCMV antigens; format: cell-based; details: Human betaherpesvirus 5, AD169, 96 hours
Text: as §1
(§4) Viral yield was estimated by measuring the amount of a viral antigen produced 4 days post infection with a monoclonal antibody to an abundant "immediate early" viral protein. An enzyme-linked (horseradish peroxidase) secondary antibody specific to the primary (mouse) antibody was used to measure the amount of viral antigen. Test compounds were diluted to 2-times the desired final concentration in DMEM + 5% FBS. One hundred microliters of this solution was placed in each well of a 96-well plate. This was performed once for the antiviral 96-well plate and again for a cytotoxicity plate. Two controls were also included for both plates; a no drug control and a no virus control. […]
(§5) The following was performed on the antiviral plate only. […] The reaction was stopped by adding 100 µL of phosphoric acid and the OD at 450 nm recorded. […] Antiviral activity was calculated by comparing the amount of viral antigen produced in drug treated wells with that produced in wells absent of drug. […]

[8] = tested on: HCMV; assay: HCMV antiviral assay, format (RC256 or ELISA) not given; format: cell-based; details: Human betaherpesvirus 5, read-out: Antiviral Activity EC50
Text: as §1
as §4, with “plate.” for “plate. Two controls were also included for both plates; a no drug control and a no virus control.”
as §5
In this assay, HCMV replication was monitored by the production of E. coli beta-galactosidase by the engineered virus RC256 [Spaete and Mocarski, Proc.Nat.Acad.Sci., 84, 7213 (1987)]. […]

[9] = read-out: Assemblin Protease % @ Conc.

Chain of HCMV protease (Assemblin) (P16753 1-256): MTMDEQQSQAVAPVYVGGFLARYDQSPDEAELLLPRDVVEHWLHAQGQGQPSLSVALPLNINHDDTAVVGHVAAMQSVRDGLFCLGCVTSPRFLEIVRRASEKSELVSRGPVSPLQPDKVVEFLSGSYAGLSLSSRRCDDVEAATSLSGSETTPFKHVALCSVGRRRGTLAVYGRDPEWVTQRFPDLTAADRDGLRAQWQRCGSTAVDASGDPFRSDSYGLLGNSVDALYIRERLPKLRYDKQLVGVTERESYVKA

O=C(Nc1ccccc1C(=O)C(F)(F)F)c1ccccn1 [Example 11, N-[2-(2,2,2-trifluoro-1-oxoethyl)phenyl]pyridine-2-carboxamide]
inhibition at 33 µM [1, 9]: 40%

O=C(Nc1ccccc1C(=O)C(F)(F)F)c1ccco1 [Example 1, N-[2-(2,2,2-trifluoro-1-oxoethyl)phenyl]furan-2-carboxamide]
CC50 ([2]; foreskin fibroblasts): > 100 µM
inhibition at 300 µM ([3]; @ 300 µM): 25%
EC50 [4]: 45 µM

COc1ccccc1C(=O)Nc1ccccc1C(=O)C(F)(F)C(=O)NC(C)C [Example 17, N-[2-(3-(2-propylamino)-3-oxo-2,2-difluoro-1-oxopropyl)phenyl]2-methoxyphenylcarboxamide]
inhibition at 300 µM [5]: 0%

O=C(Nc1ccccc1C(=O)C(F)(F)F)c1cnccn1 [Example 5, N-[2-(2,2,2-trifluoro-1-oxoethyl)phenyl]pyrazine-2-carboxamide]
CC50 ([2]; foreskin fibroblasts): > 100 µM
inhibition at 300 µM [5]: 0%
EC50 [4]: 55 µM

N-[2,2,2-trifluoro-1-oxoethyl)phenyl]indolyl-2-carboxamide [Example 15]
percent inhibition ([1]; @ 100 µM): 30% @ 100

O=C(Nc1ccc(F)cc1C(=O)C(F)(F)F)c1ccco1 [Example 8, N-[4-fluoro-2-(2,2,2-trifluoro-1-oxoethyl)phenyl] furan-2-carboxamide]
inhibition at 33 µM [1, 9]: 18%

O=C(CCc1ccccc1)Nc1cc(F)ccc1C(=O)C(F)(F)F [Example 2, N-[5-fluoro-2-(2,2,2-trifluoro-1-oxoethyl)phenyl]benzenepropanamide]
CC50 ([2]; foreskin fibroblasts): > 100 µM
inhibition at 100 µM [5]: 48%
inhibition at 100 µM ([3]; @ 100 µM): 26%
EC50 [4]: 57 µM

COc1ccccc1C(=O)Nc1ccccc1C(=O)C(F)(F)F [Example 12, N-[2-(2,2,2-trifluoro-1-oxoethyl)phenyl]2-methoxybenzamide]
inhibition at 33 µM [1, 9]: 14%

O=C(CCc1ccccc1)Nc1ccccc1C(=O)C(F)(F)F [Example 4, N-[2-(2,2,2-trifluoro-1-oxoethyl)phenyl]benzenepropanamide]
inhibition at 100 µM [5]: 11%

O=C(CCc1ccccc1)Nc1cc([N+](=O)[O-])ccc1C(=O)C(F)(F)F [Example 7, N-[5-nitro-2-[2,2,2-trifluoro-1-oxoethyl)phenyl]benzenepropanamide]
CC50 at 96 h [6]: > 100 µM
inhibition at 100 µM [5]: 27%
EC50 [7]: 16 µM
inhibition at 33 µM [1, 9]: 84%

O=C(Nc1ccccc1C(=O)C(F)(F)F)OCc1ccccc1 [Example 6, phenylmethyl N-[2-(2,2,2-trifluoro-1-oxoethyl)phenyl]carbamate]
inhibition at 100 µM [5]: 21%

O=C(Nc1ccc(I)cc1C(=O)C(F)(F)F)c1ccco1 [Example 13, N-[4-iodo-2-(2,2,2-trifluoro-1-oxoethyl)phenyl]furan-2-carboxamide]
CC50 ([2]; human foreskin fibroblasts): > 100 µM
EC50 [8]: 28 µM
inhibition at 33 µM ([5]; @ 33 µM): 39%
inhibition at 24 µM ([3]; @ 24 µM): 50%

O=C(Nc1ccccc1C(=O)C(F)(F)F)c1cc2ccccc2s1 [Example 9, N-[2-(2,2,2-trifluoro-1-oxoethyl)phenyl]-1-benzothiophene-2-carboxamide]
CC50 ([2]; foreskin fibroblasts): > 100 µM
inhibition at 100 µM [5]: 48%
EC50 [4]: 30 µM

O=C(Nc1ccccc1C(=O)C(F)(F)F)C(F)(F)F [Example 10, α,α,α-trifluoro-N-[2-(2,2,2-trifluoro-1-oxoethyl)phenyl]acetamide]
CC50 at 96 h [6]: > 100 µM
inhibition at 100 µM [5]: 49%
EC50 [7]: > 100 µM
inhibition at 10 µM ([1]; @ 10 µM, read-out: Assemblin Protease % @ Conc.): 39%

Reference: patent EP0888322B1, “ELECTROPHILIC KETONES FOR THE TREATMENT OF HERPESVIRUS INFECTIONS” (G.D. SEARLE & CO., priority 1996, dated 1997)
